# ChEMBL document CHEMBL3774322, “New orally active diphenylmethyl-based ester analogues of dihydroartemisinin: Synthesis and antimalarial assessment against multidrug-resistant Plasmodium yoelii nigeriensis in mice” (Bioorg Med Chem Lett, 2016)
# Calls of active or inactive are those of the source. The rule behind the calls is not given here.
# Test system: Plasmodium yoelii nigeriensis
# Assay: (§1) Antimalarial activity against blood stage multidrug-resistant Plasmodium yoelii nigeriensis infected swiss mouse assessed as protection against Plasmodium yoelii nigeriensis infection at 12 mg/kg, po administered once daily for 3 days measured on day 4 and subsequently twice a week up to 28 days by microscopy
# Assay type: functional
# Conditions: not given
row,SMILES,Activity
1,C[C@H]1[C@H](OC(=O)CC(c2ccc(Br)cc2)c2ccc(Br)cc2)O[C@@H]2O[C@@]3(C)CC[C@H]4[C@H](C)CC[C@@H]1[C@@]24OO3,inactive

# Test system: Plasmodium yoelii nigeriensis
# Assay: Antimalarial activity against blood stage multidrug-resistant Plasmodium yoelii nigeriensis infected swiss mouse assessed as suppression of parasitaemia at 48 mg/kg, po administered once daily for 3 days measured on day 4 by microscopic analysis relative to control
# Assay type: functional
# Conditions: not given
row,SMILES,inhibition in vivo at 48 mg/kg [%]
1,CC(=O)O[C@@H]1O[C@@H]2O[C@@]3(C)CC[C@H]4[C@H](C)CC[C@@H]([C@H]1C)[C@@]24OO3,100
2,C[C@H]1[C@H](OC(=O)CCc2ccccc2)O[C@@H]2O[C@@]3(C)CC[C@H]4[C@H](C)CC[C@@H]1[C@@]24OO3,100
3,CCCCCC(=O)O[C@@H]1O[C@@H]2O[C@@]3(C)CC[C@H]4[C@H](C)CC[C@@H]([C@H]1C)[C@@]24OO3,100
4,CCCCCCC(=O)O[C@@H]1O[C@@H]2O[C@@]3(C)CC[C@H]4[C@H](C)CC[C@@H]([C@H]1C)[C@@]24OO3,100
5,C[C@H]1[C@H](OC(=O)CC(c2ccc(Br)cc2)c2ccc(Br)cc2)O[C@@H]2O[C@@]3(C)CC[C@H]4[C@H](C)CC[C@@H]1[C@@]24OO3,100

# Test system: Plasmodium yoelii nigeriensis
# Assay: Antimalarial activity against blood stage multidrug-resistant Plasmodium yoelii nigeriensis infected swiss mouse assessed as protection […] at 24 mg/kg, po administered once daily for 3 days measured after 28 days by microscopy
# Assay type: functional, organism-based
# Conditions: not given
row,SMILES,Activity
1,C[C@H]1[C@H](OC(=O)CC(c2ccc(Br)cc2)c2ccc(Br)cc2)O[C@@H]2O[C@@]3(C)CC[C@H]4[C@H](C)CC[C@@H]1[C@@]24OO3,inactive

# Test system: Plasmodium yoelii nigeriensis
# Assay: Antimalarial activity against blood stage multidrug-resistant Plasmodium yoelii nigeriensis infected swiss mouse assessed as protection […] at 24 mg/kg, po administered once daily for 3 days measured on day 4 and subsequently twice a week up to 28 days by microscopy
# Assay type: functional
# Conditions: not given
row,SMILES,Activity
1,CC(=O)O[C@@H]1O[C@@H]2O[C@@]3(C)CC[C@H]4[C@H](C)CC[C@@H]([C@H]1C)[C@@]24OO3,inactive
2,CCCCCC(=O)O[C@@H]1O[C@@H]2O[C@@]3(C)CC[C@H]4[C@H](C)CC[C@@H]([C@H]1C)[C@@]24OO3,inactive
3,C[C@H]1[C@H](OC(=O)CC(c2ccc(Br)cc2)c2ccc(Br)cc2)O[C@@H]2O[C@@]3(C)CC[C@H]4[C@H](C)CC[C@@H]1[C@@]24OO3,100%

# Test system: Plasmodium yoelii nigeriensis
# Assay: Antimalarial activity against blood stage multidrug-resistant Plasmodium yoelii nigeriensis infected swiss mouse assessed as suppression of parasitaemia at 24 mg/kg, po administered once daily for 3 days measured on day 4 by microscopic analysis relative to control
# Assay type: functional
# Conditions: not given
row,SMILES,inhibition in vivo at 24 mg/kg [%]
1,CC(=O)O[C@@H]1O[C@@H]2O[C@@]3(C)CC[C@H]4[C@H](C)CC[C@@H]([C@H]1C)[C@@]24OO3,99
2,C[C@H]1[C@H](OC(=O)CCc2ccccc2)O[C@@H]2O[C@@]3(C)CC[C@H]4[C@H](C)CC[C@@H]1[C@@]24OO3,100
3,CCCCCC(=O)O[C@@H]1O[C@@H]2O[C@@]3(C)CC[C@H]4[C@H](C)CC[C@@H]([C@H]1C)[C@@]24OO3,100
4,CCCCCCC(=O)O[C@@H]1O[C@@H]2O[C@@]3(C)CC[C@H]4[C@H](C)CC[C@@H]([C@H]1C)[C@@]24OO3,100
5,C[C@H]1[C@H](OC(=O)CC(c2ccc(Br)cc2)c2ccc(Br)cc2)O[C@@H]2O[C@@]3(C)CC[C@H]4[C@H](C)CC[C@@H]1[C@@]24OO3,100

# Test system: Plasmodium yoelii nigeriensis
# Assay: Antimalarial activity against blood stage multidrug-resistant Plasmodium yoelii nigeriensis infected swiss mouse assessed as suppression of parasitaemia at 12 mg/kg, po administered once daily for 3 days measured on day 4 by microscopic analysis relative to control
# Assay type: functional
# Conditions: not given
row,SMILES,inhibition in vivo at 12 mg/kg [%]
1,C[C@H]1[C@H](OC(=O)CC(c2ccc(Br)cc2)c2ccc(Br)cc2)O[C@@H]2O[C@@]3(C)CC[C@H]4[C@H](C)CC[C@@H]1[C@@]24OO3,100

# Test system: Plasmodium yoelii nigeriensis
# Assay: as §1, with “48” for “12”
# Assay type: functional
# Conditions: not given
row,SMILES,Activity [%]
1,C[C@H]1[C@H](OC(=O)CCc2ccccc2)O[C@@H]2O[C@@]3(C)CC[C@H]4[C@H](C)CC[C@@H]1[C@@]24OO3,100
2,CCCCCC(=O)O[C@@H]1O[C@@H]2O[C@@]3(C)CC[C@H]4[C@H](C)CC[C@@H]([C@H]1C)[C@@]24OO3,100
3,CCCCCCC(=O)O[C@@H]1O[C@@H]2O[C@@]3(C)CC[C@H]4[C@H](C)CC[C@@H]([C@H]1C)[C@@]24OO3,100
4,C[C@H]1[C@H](OC(=O)CC(c2ccc(Br)cc2)c2ccc(Br)cc2)O[C@@H]2O[C@@]3(C)CC[C@H]4[C@H](C)CC[C@@H]1[C@@]24OO3,100

# Test system: Plasmodium yoelii nigeriensis
# Assay: Antimalarial activity against blood stage multidrug-resistant Plasmodium yoelii nigeriensis infected swiss mouse assessed as protection against Plasmodium yoelii nigeriensis infection at 12 mg/kg, po administered once daily for 3 days measured after 28 days by microscopy
# Assay type: functional, organism-based
# Conditions: not given
row,SMILES,Activity
1,C[C@H]1[C@H](OC(=O)CC(c2ccc(Br)cc2)c2ccc(Br)cc2)O[C@@H]2O[C@@]3(C)CC[C@H]4[C@H](C)CC[C@@H]1[C@@]24OO3,inactive

# Test system: not listed separately
# Assay: Lipophilicity, logP of compound
# Assay type: physicochemical
# Conditions: octanol/water
row,SMILES,logP
1,CC(=O)O[C@@H]1O[C@@H]2O[C@@]3(C)CC[C@H]4[C@H](C)CC[C@@H]([C@H]1C)[C@@]24OO3,3.37
2,C[C@H]1[C@H](OC(=O)CCc2ccccc2)O[C@@H]2O[C@@]3(C)CC[C@H]4[C@H](C)CC[C@@H]1[C@@]24OO3,5.63
3,CCCCCC(=O)O[C@@H]1O[C@@H]2O[C@@]3(C)CC[C@H]4[C@H](C)CC[C@@H]([C@H]1C)[C@@]24OO3,5.28
4,CCCCCCC(=O)O[C@@H]1O[C@@H]2O[C@@]3(C)CC[C@H]4[C@H](C)CC[C@@H]([C@H]1C)[C@@]24OO3,5.7
5,C[C@H]1[C@H](OC(=O)CC(c2ccc(Br)cc2)c2ccc(Br)cc2)O[C@@H]2O[C@@]3(C)CC[C@H]4[C@H](C)CC[C@@H]1[C@@]24OO3,8.81
